Results as given in US20110293530A1, “Methods and Compositions for Using Bleomycin-Derivatized Microbubbles” (ARIZONIA BOARD OF REGENTS, priority 2008, published 2011).
Entries after “also recorded” stand apart in the source; their conditions may differ.

Experiments:
[1] = test system: MCF-10A 'normal' human breast cells; assay: microbubble attachment to cells, parallel plate flow chamber; type: cell-based; conditions: MCF-10A 'normal' breast cells; 400×; FIGS. 5, 9-11
Method: (§1) To create biotinylated microbubbles, the synthesized biotin-bleomycin A5 ligand was conjugated to Targestar^B Targeted Ultrasound Contrast Agent (Targeson). Four hundred microliters of Coupling Reagent (Targeson) were added to 1.5 mL of conjugated Targestar^B microbubbles and incubated for 20 min at room temperature, with gentle agitation every 5 min. The product was divided into two syringes, rinsed with 1.75 mL of Infusion Buffer, and then centrifuged for 3 min at 400×g (10° C.). The infranatant was then drained to 1 mL. Fifty μL of biotinylated bleomycin A5 was added to one of the vials and both were incubated at room temperature for 20 min with gentle agitation every 5 min. To each sample was added 1.75 mL of Infusion Buffer before centrifugation for 3 min at 400×g (10° C.). This solution was then drained to 1.0 mL before recovery of the supernatant and repetition of the previous step. Finally, the supernatant was resuspended in Infusion Buffer to a final volume of 2.0 mL.
Attachment of the biotinylated microbubble to the cultured MCF-7 breast cancer cells was imaged using an inverted microscope Zeiss Axiovert 200M fitted with an AxioCam MRm camera. Adherent cancer cells on glass cover slips were assembled into a parallel plate flow chamber (Bioptechs FCS2, Micro-Environmental Systems) with a constant temperature maintained at 37° C. […]

[2] = test system: MCF-7 human breast carcinoma cells; assay: as above; type: cell-based; conditions: 400×
Method: MCF-7 human breast carcinoma cells (ATCC, Manassas, Va.) were grown on sterile glass cover slips (40 mm) and incubated at 37° C. until they reached 40-60% confluency in a 5% fetal bovine serum/RPMI1640 medium solution.
as §1
Attachment of the biotinylated microbubble to the cultured MCF-7 breast cancer cells was imaged using an inverted microscope Zeiss Axiovert 200M fitted with an AxioCam MRm camera. Adherent cancer cells on glass cover slips were assembled into a parallel plate flow chamber (Bioptechs FCS2, Micro-Environmental Systems) with a constant temperature maintained at 37° C. The prepared solution of biotinylated microbubbles was introduced into the parallel plate flow chamber via ⅛-inch diameter tubing (Silastic) at a controlled rate of 0.01 mL/min using an adjustable infusion-withdrawal syringe pump (Harvard Apparatus, Holliston, Mass.). A negative control experiment was performed using a preparation of Targestar^B microbubbles without any added biotin-bleomycin A5 ligand. ‘Normal’ human breast MCF-10A cells were used as well for comparison purposes. […]

Substance	Targestar B microbubble attachment to cells (microscopy, in words) [1]	Targestar B microbubble attachment to cells (microscopy, in words) ([2]; FIGS. 3, 4, 6-8)	Targestar B microbubble attachment to cells (microscopy, in words) ([2]; FIGS. 3, 4, 6-8, listed as biotinylated BLM A5)	Targestar B microbubble attachment to cells (microscopy, in words) ([2]; FIGS. 3, 4, 6-8, listed as biotinylated bleomycin)
biotinylated deglycobleomycin A5	does not promote Targestar B microbubble attachment; also recorded: lack of attachment	does not promote Targestar B microbubble attachment; also recorded: did not reveal the presence of microbubbles attached		
biotinylated bleomycin A5 [Biotinylated BLM A5]	attachment was not observed		selective attachment	did promote attachment
